Consider 1 compound from patent publication US7479506B2, “Agent or method for treating severe aphasia in cerebrovascular accident chronic stage” (priority 2003, dated 2009).

The test system of data set [1] is aphasia after cerebrovascular accidents. The settings on record: acute phase after cerebrovascular accidents, combination use of speech therapy; cited from earlier work.
The conditions of data set [2]: 60 g/day for gait disturbance of cerebellar degeneration; Movement Disorder, 2003, 18, pp. 457-459; cited from earlier work.
Another data set can be described thus: Acute toxicity. To be noted: in vivo. From the text:
Acute toxicity of the compound represented by formula (I) was examined and it has been confirmed that this is a compound having high safety.

As to `NC(=O)CN1CCCC1=O` [piracetam, 2-oxo-1-pyrrolidineacetamide], the “therapeutic effect on aphasia” value in data set [1] is reported as “therapeutic effect of piracetam is found”. Besides, the safety entry in data set [2] was “no problem on its safety”. Further, the acute toxicity result in “Acute toxicity” is reported as “high safety”.
